US9688722B2, “Substrates and inhibitors of prolyl oligopeptidase and methods of use” (The Board of Regents of the University of Oklahoma, priority 2012, dated 2017)

How the values were obtained:
[1] = system: human lung adenocarcinoma epithelial cells; test: Lung cancer xenografts in nude mice; type: in vivo
Method: Mice were given a 50 μl injection into each hind leg consisting of human lung adenocarcinoma epithelial cells (2×10^6 cells) suspended in Matrigel™. After ten days the tumors had grown to an estimated 40 mm^3, so M83 treatment was initiated (day 0 in graph). For the M83 treatment group, mice were given a daily intraperitoneal injection of 26.5 micrograms of M83 dissolved in 20 microliters of sterile saline. The mice of the control group were given an intraperitoneal injection of 20 microliters of sterile saline. […] The treatment groups consisted of three mice each with two tumors per mouse.

APCE/FAP = molecular target: T1, APCE/FAP (Homo sapiens, UniProt Q12884); test: APCE/FAP inhibition constants (Ki) with Tic-Pro-AFC substrate; type: biochemical; details: substrate Tic-Pro-AFC
T1 construct: absence of an about 26-residue amino terminal peptide constituting the transmembrane and intracytosolic domains; from tissue
T1 sequence (Q12884 24-760 limits assumed): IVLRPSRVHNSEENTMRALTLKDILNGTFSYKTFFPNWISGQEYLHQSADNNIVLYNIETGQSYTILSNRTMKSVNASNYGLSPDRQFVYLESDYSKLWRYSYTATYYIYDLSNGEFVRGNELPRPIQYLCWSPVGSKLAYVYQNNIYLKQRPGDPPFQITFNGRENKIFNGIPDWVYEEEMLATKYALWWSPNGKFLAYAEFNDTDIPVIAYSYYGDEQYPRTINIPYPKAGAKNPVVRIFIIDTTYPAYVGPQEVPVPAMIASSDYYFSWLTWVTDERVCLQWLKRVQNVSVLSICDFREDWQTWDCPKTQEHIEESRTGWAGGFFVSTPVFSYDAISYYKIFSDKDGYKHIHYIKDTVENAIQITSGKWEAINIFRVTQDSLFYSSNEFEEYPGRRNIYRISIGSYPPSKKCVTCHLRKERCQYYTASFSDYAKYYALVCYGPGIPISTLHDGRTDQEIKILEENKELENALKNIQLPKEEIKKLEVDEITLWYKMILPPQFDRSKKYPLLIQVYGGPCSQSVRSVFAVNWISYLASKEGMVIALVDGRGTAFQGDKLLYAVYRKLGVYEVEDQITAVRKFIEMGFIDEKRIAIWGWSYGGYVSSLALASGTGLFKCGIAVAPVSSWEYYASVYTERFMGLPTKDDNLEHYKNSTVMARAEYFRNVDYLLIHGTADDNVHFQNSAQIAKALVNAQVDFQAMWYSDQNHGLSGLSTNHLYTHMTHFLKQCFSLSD
Method: For accurate assessment of kinetic parameters, saturating concentrations of substrate were used. For standard curves, dilutions of AFC (7-amino-4-trifluoromethylcoumarin) were prepared in the same assay buffer and corresponding fluorescence was measured.

`CC(=O)N[C@@H](CCCNC(=N)N)C(=O)NCCOCCOCC(=O)N[C@H](C)C(=O)N1CCC[C@H]1B(O)O` [Compound M83, acetyl-Arg-AEEA-(D)Ala-(L)boroPro] was tested, and the tumor growth ([1]; daily intraperitoneal 26.5 micrograms, nude mice, versus saline control) was “failed to progress”, the average tumor volume ([1]; day 28 of treatment versus day zero) was “no greater than on day zero” and the tumors completely disappeared ([1]; six tumors in treatment group, 28 days) was “one of the six tumors”. It also gave a Ki (APCE/FAP) of 5.7 nM.
